# “Also recorded” adds a separate entry of the source. No end group written: not given here.
# Key:
# [1] = system: islets isolated from 10-week-old BTBR lean and Ob mice; test: Mouse islet glucose-stimulated insulin secretion (GSIS) assay; assay type: cell-based; settings: for effect on GSIS from islets obtained from diabetic BTBR mice: diabetic (ob/ob) BTBR islets; for effect on GSIS from islets obtained from diabetic BTBR mice / effect on GSIS from islets obtained from non-diabetic mice: 16.7 mM glucose, PGE1 5 μM or L-798,106 20 μM, 1 hour static incubation; for effect on GSIS from islets obtained from non-diabetic mice: non-diabetic (lean) BTBR islets
# Description: Mouse Islet Isolation & Culture. Intact pancreatic islets were isolated from 10-12-week-old BTBR lean and ob/ob mice using a known collagenase digestion protocol (Rabaglia et al., Am. J. Physiology Endo. Metab. 289:E218-224 (2005)). Instead of CO2 asphyxiation and decapitation, mice were Avertin-anesthetized and exsanguinated immediately prior to cannulation of the bile duct and inflation of the pancreas with a collagenase solution. Islets were cultured overnight in 5 ml RPMI 1640 containing 11.1 mM glucose and 10% heat-inactivated FBS with 1X penicillin/streptomycin prior to in vitro assay for insulin secretion and PGE2 production.
# Mouse Islet Insulin Secretion and PGE2 Production Assays. Insulin secretion assays were performed in mesh-bottomed glass tubes essentially as in Rabaglia et al. (2005). Modifications include: 4 islets/replicate were picked into Krebs Ringer Bicarbonate Buffer (KRBB) containing 1.7 mM glucose and 0.25% BSA. Replicates were pre-incubated for 1 hour in fresh 1.7 mM KRBB before being transferred to stimulation medium containing the desired concentrations of glucose and drug treatment (e.g., PGE1, PGE2, and sulprostone [Sigma Aldrich] or L-798,106 [Tocris]). Insulin secretion as a percentage of total insulin content was determined using an in-house insulin ELISA, as described above.
# As a first step in testing their hypothesis that the EP3 signaling pathway contributes to the pathophysiology of T2D, the Inventors subjected islets isolated from 10-week-old BTBR lean and Ob mice to treatment with a selective agonist (PGE1) or specific antagonist (L-798,106) of the EP3 receptor to monitor the impact on GSIS. Briefly, mouse islets were incubated in medium containing 1.7 mM glucose (non-stimulatory towards insulin secretion) or 16.7 mM glucose (stimulatory towards insulin secretion), with and without the addition of 5 μM PGE1 or 20 μM L-798,106.
# GLP-1-based therapies are used in T2D therapy. To test the possibility that EP3 antagonism can augment the effect of GLP-1 agonism, islets from diabetic BTBR mice were treated with stimulatory glucose, with and without the addition of 50 nM GLP-1 and/or 10 μM […], and the level of insulin secretion monitored (FIG. 9).
# [2] = system: human islets from non-diabetic or T2D cadaveric donors; test: Human islet insulin secretion assay; assay type: cell-based
# Description: Human Islet Culture and Insulin Secretion Assays. Human islets were obtained through the Integrated Islet Distribution Program. On the day of arrival, islets were cultured overnight in RPMI containing 8 mM glucose, 10% heat-inactivated FBS, and 1X penicillin/streptomycin to confirm viability and sterility. Islets were cultured in 6 cm Petri dishes with approximately 1000 islet equivalents plated per dish. Islets were hand-picked and incubated an additional day in medium containing the desired concentration of glucose and/or xylitol before assaying for insulin secretion. Insulin secretion assays on human islets were performed identically to those described for mouse islets, except that 10 islets were used per replicate instead of 4.
# Non-diabetic and T2D human islets were cultured for 48 hours in 8 mM glucose. A subset of the non-diabetic donor islets were also incubated with 0.5 mM xylitol, a glucose analog that is non-metabolizable beyond glucose-6 phosphate, during the final 24 hour culture period. […] Xylitol activates the FoxO1 transcription factor via glucose-6 phosphate formation, providing an alternative mechanism for up-regulating gene expression. Following 48 hours in culture, cellular insulin secretion was stimulated for 45 minutes with 16.7 mM glucose in the absence and presence of 10 μM L-798,106. Secreted insulin was normalized to total insulin content in order to determine the fractional release of insulin. Data from each human islet set was normalized to its own response in 16.7 mM glucose alone to isolate the effect of L-798,106 on GSIS (FIG. 6).
# [3] = system: Ins-1 832/3 cells; test: INS1 cell insulin secretion assay; assay type: cell-based, rat; settings: for minimum dose yielding maximum effect on GSIS inhibition: 2 hour stimulation
# Description: INS1 Cell Culture and Insulin Secretion Assays. The glucose responsive rat beta cell line, INS1 (832/3) was cultured in RPMI 1640 (11.1 mM glucose) supplemented with NaHCO3, HEPES, heat-inactivated FBS, L-glutamine, sodium pyruvate and β-mercaptoethanol. 3 days prior to assay, 1×10^5 cells were plated per well in 96-well cell culture plates. Twenty-four hours prior to the assay, the medium was aspirated and fresh growth medium added. On the day of the assay, confluent Ins-1 832/3 cells were washed once with sterile PBS and pre-incubated for 2 hours in KRBB supplemented with 25 mM HEPES and containing 1.7 mM glucose and 0.2% BSA. Cells were then stimulated for 2 hours with KRBB containing 16.7 mM glucose and the desired concentrations of agonists/antagonists. Secretion buffer was collected and the secreted and cellular insulin content determined by acid/ethanol extraction, as described above.
# Insulin secretion assays in Ins-1 832/3 cells were performed wherein the dose of PGE2 (a physiological agonist of EP3) or sulprostone (an EP3-selective agonist) were varied over a wide concentration range. […] The minimum dose of sulprostone yielding maximum effect on GSIS inhibition was approximately 10 nM and the minimum dose of PGE2 was approximately 50 nM.
# [4] = diabetic patients treated with sitagliptin; cited from earlier work
compound,measurement,setting,value
"COc1ccc(Br)cc1S(=O)(=O)NC(=O)/C=C/c1ccccc1Cc1ccc2ccccc2c1 [L-798,106, (2E)-N-[(5-bromo-2-methoxyphenyl)sulfonyl]-3-[2-(2-naphthalenylmethyl)phenyl]-2-propenamide]",effect on GSIS from islets obtained from diabetic BTBR mice,[1],significantly altered insulin secretion; also recorded: enhanced GSIS
same,effect on GLP-1 dependent insulin secretion from diabetic BTBR islets,"[1]; diabetic BTBR-ob/ob islets, 11.1 mM glucose, GLP-1 50 nM plus L-798,106 10 μM",augments GLP-1 dependent insulin secretion
same,effect on GSIS from islets obtained from non-diabetic mice,[1],had no effect on GSIS
same,effect on insulin secretion from diabetic (T2D) human islets,"[2]; T2D donor islets, 16.7 mM glucose, L-798,106 20 μM / 10 μM, 45 minute static incubation",can enhance insulin secretion; also recorded: differed significantly from responses of non-diabetic islets
same,effect on insulin secretion from non-diabetic human islets,"[2]; non-diabetic donors 5-7, cultured in 8 mM glucose, 16.7 mM glucose stimulation, 45 minute static incubation",non-responsive
same,effect on insulin secretion from xylitol-incubated non-diabetic human islets,"[2]; non-diabetic donors 5-7 incubated overnight in 8 mM glucose with 0.5 mM xylitol, 16.7 mM glucose stimulation, 45 minutes",effective to promote glucose dependent insulin secretion; also recorded: differed significantly from responses of non-diabetic islets
same,EC50,"[3]; Rattus norvegicus, INS1, in the presence of 50 nM PGE2 (maximal inhibitory concentration), 16.7 mM glucose, 2 hour static incubation, read-out: approximate EC50 for restoring insulin secretion",~100 nM
same,reversal of sulprostone-dependent suppression of GSIS,"[3]; in the presence of 10 nM sulprostone, stimulatory glucose, dose response of L-798,106",reversed in a dose-dependent manner
same,reversal of PGE2-dependent suppression of insulin secretion,"[3]; in the presence of 50 nM PGE2, increasing concentrations of L-798,106, 16.7 mM glucose",restored maximal insulin secretion; also recorded: reversed in a dose-dependent manner
CCCCC[C@H](O)/C=C/[C@H]1[C@H](O)CC(=O)[C@@H]1CCCCCCC(=O)O [PGE1],effect on GSIS from islets obtained from diabetic BTBR mice,[1],significantly altered insulin secretion; also recorded: reduced GSIS
same,effect on GSIS from islets obtained from non-diabetic mice,[1],had no effect
CCCCC[C@H](O)/C=C/[C@H]1[C@H](O)CC(=O)[C@@H]1C/C=C\CCCC(=O)O [PGE2],IC50,"[3]; 16.7 mM glucose, 2 hour static incubation, read-out: approximate IC50 for suppression of insulin secretion",~10 nM
same,minimum dose yielding maximum effect on GSIS inhibition,[3]; 16.7 mM glucose,approximately 50 nM
same,maximal reduction in insulin secretion,"[3]; 16.7 mM glucose, increasing concentrations, 2 hour static incubation",~80%
same,inhibition of GSIS (dose dependence),"[3]; 16.7 mM glucose, wide concentration range",dose-dependently suppresses insulin secretion; also recorded: dose-dependently inhibited GSIS
N[C@@H](CC(=O)N1CCn2c(nnc2C(F)(F)F)C1)Cc1cc(F)c(F)cc1F [sitagliptin],diabetic patients who fail to achieve HbAlc target of <7%,[4],35-60%
CS(=O)(=O)NC(=O)CCC/C=C\C[C@H]1C(=O)C[C@@H](O)[C@@H]1/C=C/[C@@H](O)COc1ccccc1 [sulprostone],minimum dose yielding maximum effect on GSIS inhibition,[3]; 16.7 mM glucose,approximately 10 nM
"glucagon-like peptide 1 (HAEGTFTSDVSSYLEGQAAKEFIAWLVKGR; ends and bridges not checked; UniProt P01275 98-127, looked up) [GLP-1, hormone glucagon-like peptide 1]",effect of GLP-1 alone on insulin secretion from diabetic BTBR islets,"[1]; diabetic BTBR islets, 11.1 mM glucose, GLP-1 50 nM",significant impact on insulin secretion
